# Measured values reported in US20100267561A1, “HERBICIDAL PYRIDAZINONE DERIVATIVES” (priority 2007, published 2010).
# How the values were obtained:
# Experiment in all cases: Test E pre-/postemergence plant response
# Assay type in all cases: in vivo
# [1] = test system: goosegrass (Eleusine indica); conditions: scale 0 to 100
# How it was run: (§1)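 Formulated in a non-phytotoxic solvent mixture containing surfactant, compound was applied to soil at planting or sprayed on emerged plants at the 1- to 4-leaf stage. Visual comparison with controls followed 14 to 21 days in the greenhouse; 0 = no effect, 100 = complete control.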
# [2] = test system: quackgrass (Elytrigia repens); conditions: scale 0 to 100
# How it was run: as §1
# [3] = test system: black mustard (Brassica nigra); conditions: scale 0 to 100
# How it was run: as §1
# [4] = test system: common chickweed (Stellaria media); conditions: 4 g ai/ha, Postemergence, scale 0 to 100
# How it was run: as §1
# [5] = test system: itchgrass (Rottboellia cochinchinensis); conditions: scale 0 to 100
# How it was run: as §1
# [6] = test system: barnyardgrass (Echinochloa crus-galli)
# How it was run: as §1
# [7] = test system: Italian ryegrass (Lolium multiflorum); conditions: scale 0 to 100
# How it was run: as §1
# [8] = test system: green foxtail (Setaria viridis); conditions: scale 0 to 100
# How it was run: as §1
# [9] = test system: pitted morningglory (Ipomoea lacunosa); conditions: scale 0 to 100
# How it was run: as §1
# [10] = test system: surinam grass (Brachiaria decumbens); conditions: scale 0 to 100
# How it was run: as §1
# [11] = test system: common groundsel (Senecio vulgaris); conditions: scale 0 to 100
# How it was run: as §1
# [12] = test system: southern (S.) sandbur (Cenchrus echinatus); conditions: scale 0 to 100
# How it was run: as §1
# [13] = test system: johnsongrass (Sorghum halepense); conditions: scale 0 to 100
# How it was run: as §1
# [14] = test system: broadleaf signalgrass (Brachiaria platyphylla); conditions: scale 0 to 100
# How it was run: as §1
# [15] = test system: naked crabgrass (Digitaria nuda); conditions: scale 0 to 100
# How it was run: as §1
smiles,measurement,setting,value
CCc1cc(-c2ccc(C(F)(F)F)cc2)nn1-c1c(OS(C)(=O)=O)cnn(C)c1=O [Compound 19],"Plant response rating, Goosegrass","[1]; 4 g ai/ha, Postemergence",0
same,"Plant response rating, Goosegrass","[1]; 8 g ai/ha, Preemergence",40
same,"Plant response rating, Goosegrass","[1]; 16 g ai/ha, Preemergence",70
same,"Plant response rating, Goosegrass","[1]; 31 g ai/ha, Preemergence",90
same,"Plant response rating, Goosegrass","[1]; Postemergence, 8 g ai/ha",25
same,"Plant response rating, Goosegrass","[1]; Postemergence, 16 g ai/ha",60
same,"Plant response rating, Goosegrass","[1]; Postemergence, 31 g ai/ha",75
same,"Plant response rating, Goosegrass","[1]; Preemergence, 4 g ai/ha",15
same,"Plant response rating, Quackgrass","[2]; 4 g ai/ha, Postemergence",0
same,"Plant response rating, Quackgrass","[2]; 16 g ai/ha, Preemergence",65
same,"Plant response rating, Quackgrass","[2]; 31 g ai/ha, Preemergence",80
same,"Plant response rating, Quackgrass","[2]; Postemergence, 8 g ai/ha",15
same,"Plant response rating, Quackgrass","[2]; Postemergence, 16 g ai/ha",75
same,"Plant response rating, Quackgrass","[2]; Postemergence, 31 g ai/ha",80
same,"Plant response rating, Quackgrass","[2]; Preemergence, 4 g ai/ha",0
same,"Plant response rating, Mustard, Black","[3]; 4 g ai/ha, Postemergence",0
same,"Plant response rating, Mustard, Black","[3]; 8 g ai/ha, Preemergence",0
same,"Plant response rating, Mustard, Black","[3]; 16 g ai/ha, Preemergence",0
same,"Plant response rating, Mustard, Black","[3]; 31 g ai/ha, Preemergence",0
same,"Plant response rating, Mustard, Black","[3]; Postemergence, 8 g ai/ha",0
same,"Plant response rating, Mustard, Black","[3]; Postemergence, 16 g ai/ha",0
same,"Plant response rating, Mustard, Black","[3]; Postemergence, 31 g ai/ha",0
same,"Plant response rating, Mustard, Black","[3]; Preemergence, 4 g ai/ha",0
same,"Plant response rating, Chickweed",[4],0
same,"Plant response rating, Itchgrass","[5]; 4 g ai/ha, Postemergence",0
same,"Plant response rating, Itchgrass","[5]; 16 g ai/ha, Preemergence",65
same,"Plant response rating, Itchgrass","[5]; 31 g ai/ha, Preemergence",80
same,"Plant response rating, Itchgrass","[5]; Postemergence, 8 g ai/ha",20
same,"Plant response rating, Itchgrass","[5]; Postemergence, 16 g ai/ha",70
same,"Plant response rating, Itchgrass","[5]; Postemergence, 31 g ai/ha",80
same,"Plant response rating, Itchgrass","[5]; Preemergence, 4 g ai/ha",10
same,"Plant response rating, Barnyardgrass","[6]; 4 g ai/ha, Postemergence, scale 0 to 100",90
same,"Plant response rating, Barnyardgrass","[6]; 8 g ai/ha, Preemergence, scale 0 to 100",75
same,"Plant response rating, Barnyardgrass","[6]; 16 g ai/ha, Preemergence, scale 0 to 100",95
same,"Plant response rating, Barnyardgrass","[6]; 31 g ai/ha, Preemergence, scale 0 to 100",100
same,"Plant response rating, Barnyardgrass","[6]; Postemergence, 8 g ai/ha, scale 0 to 100",98
same,"Plant response rating, Barnyardgrass","[6]; Postemergence, 16 g ai/ha, scale 0 to 100",100
same,"Plant response rating, Barnyardgrass","[6]; Postemergence, 31 g ai/ha, scale 0 to 100",100
same,"Plant response rating, Barnyardgrass","[6]; Preemergence, 4 g ai/ha, scale 0 to 100, 0 no effect, 100 complete control",0
same,"Plant response rating, Ryegrass, Italian","[7]; 4 g ai/ha, Postemergence",50
same,"Plant response rating, Ryegrass, Italian","[7]; 16 g ai/ha, Preemergence",100
same,"Plant response rating, Ryegrass, Italian","[7]; 31 g ai/ha, Preemergence",100
same,"Plant response rating, Ryegrass, Italian","[7]; Postemergence, 8 g ai/ha",90
same,"Plant response rating, Ryegrass, Italian","[7]; Postemergence, 16 g ai/ha",100
same,"Plant response rating, Ryegrass, Italian","[7]; Postemergence, 31 g ai/ha",100
same,"Plant response rating, Ryegrass, Italian","[7]; Preemergence, 4 g ai/ha",65
same,"Plant response rating, Foxtail, Green","[8]; 4 g ai/ha, Postemergence",20
same,"Plant response rating, Foxtail, Green","[8]; 8 g ai/ha, Preemergence",40
same,"Plant response rating, Foxtail, Green","[8]; 16 g ai/ha, Preemergence",65
same,"Plant response rating, Foxtail, Green","[8]; 31 g ai/ha, Preemergence",100
same,"Plant response rating, Foxtail, Green","[8]; Postemergence, 8 g ai/ha",90
same,"Plant response rating, Foxtail, Green","[8]; Postemergence, 16 g ai/ha",95
same,"Plant response rating, Foxtail, Green","[8]; Postemergence, 31 g ai/ha",100
same,"Plant response rating, Foxtail, Green","[8]; Preemergence, 4 g ai/ha",0
same,"Plant response rating, Morningglory","[9]; 4 g ai/ha, Postemergence",0
same,"Plant response rating, Morningglory","[9]; 16 g ai/ha, Preemergence",0
same,"Plant response rating, Morningglory","[9]; 31 g ai/ha, Preemergence",0
same,"Plant response rating, Morningglory","[9]; Postemergence, 8 g ai/ha",0
same,"Plant response rating, Morningglory","[9]; Postemergence, 16 g ai/ha",0
same,"Plant response rating, Morningglory","[9]; Postemergence, 31 g ai/ha",0
same,"Plant response rating, Morningglory","[9]; Preemergence, 4 g ai/ha",0
same,"Plant response rating, Surinam Grass","[10]; 4 g ai/ha, Postemergence",35
same,"Plant response rating, Surinam Grass","[10]; 16 g ai/ha, Preemergence",100
same,"Plant response rating, Surinam Grass","[10]; 31 g ai/ha, Preemergence",100
same,"Plant response rating, Surinam Grass","[10]; Postemergence, 8 g ai/ha",70
same,"Plant response rating, Surinam Grass","[10]; Postemergence, 16 g ai/ha",95
same,"Plant response rating, Surinam Grass","[10]; Postemergence, 31 g ai/ha",100
same,"Plant response rating, Surinam Grass","[10]; Preemergence, 4 g ai/ha",50
same,"Plant response rating, Groundsel","[11]; 4 g ai/ha, Postemergence",0
same,"Plant response rating, Groundsel","[11]; 16 g ai/ha, Preemergence",0
same,"Plant response rating, Groundsel","[11]; 31 g ai/ha, Preemergence",0
same,"Plant response rating, Groundsel","[11]; Postemergence, 8 g ai/ha",0
same,"Plant response rating, Groundsel","[11]; Postemergence, 16 g ai/ha",0
same,"Plant response rating, Groundsel","[11]; Postemergence, 31 g ai/ha",0
same,"Plant response rating, Groundsel","[11]; Preemergence, 4 g ai/ha",0
same,"Plant response rating, Sandbur, S.","[12]; 4 g ai/ha, Postemergence",90
same,"Plant response rating, Sandbur, S.","[12]; 16 g ai/ha, Preemergence",80
same,"Plant response rating, Sandbur, S.","[12]; 31 g ai/ha, Preemergence",95
same,"Plant response rating, Sandbur, S.","[12]; Postemergence, 8 g ai/ha",98
same,"Plant response rating, Sandbur, S.","[12]; Postemergence, 16 g ai/ha",98
same,"Plant response rating, Sandbur, S.","[12]; Postemergence, 31 g ai/ha",100
same,"Plant response rating, Sandbur, S.","[12]; Preemergence, 4 g ai/ha",0
same,"Plant response rating, Johnsongrass","[13]; 4 g ai/ha, Postemergence",90
same,"Plant response rating, Johnsongrass","[13]; 16 g ai/ha, Preemergence",95
same,"Plant response rating, Johnsongrass","[13]; 31 g ai/ha, Preemergence",98
same,"Plant response rating, Johnsongrass","[13]; Postemergence, 8 g ai/ha",90
same,"Plant response rating, Johnsongrass","[13]; Postemergence, 16 g ai/ha",100
same,"Plant response rating, Johnsongrass","[13]; Postemergence, 31 g ai/ha",100
same,"Plant response rating, Johnsongrass","[13]; Preemergence, 4 g ai/ha",75
same,"Plant response rating, Signalgrass","[14]; 4 g ai/ha, Postemergence",65
same,"Plant response rating, Signalgrass","[14]; 16 g ai/ha, Preemergence",80
same,"Plant response rating, Signalgrass","[14]; 31 g ai/ha, Preemergence",80
same,"Plant response rating, Signalgrass","[14]; Postemergence, 8 g ai/ha",80
same,"Plant response rating, Signalgrass","[14]; Postemergence, 16 g ai/ha",98
same,"Plant response rating, Signalgrass","[14]; Postemergence, 31 g ai/ha",98
same,"Plant response rating, Signalgrass","[14]; Preemergence, 4 g ai/ha",40
same,"Plant response rating, Crabgrass, Naked","[15]; 4 g ai/ha, Postemergence",40
same,"Plant response rating, Crabgrass, Naked","[15]; 8 g ai/ha, Preemergence",98
same,"Plant response rating, Crabgrass, Naked","[15]; 31 g ai/ha, Preemergence",98
same,"Plant response rating, Crabgrass, Naked","[15]; Postemergence, 8 g ai/ha",85
same,"Plant response rating, Crabgrass, Naked","[15]; Postemergence, 16 g ai/ha",90
same,"Plant response rating, Crabgrass, Naked","[15]; Postemergence, 31 g ai/ha",98
same,"Plant response rating, Crabgrass, Naked","[15]; Preemergence, 4 g ai/ha",35
